Consider eleven compounds from US10526385B2, “YAP protein inhibiting polypeptide and application thereof” (BAO KANG BIOMEDICAL HEALTHCARE INC, priority 2013, dated 2020).

The subject of test [1] is hepatoma cell line BEL7404. It is filed as cell-based. Here is the method: (§1) The hepatoma cell line BEL7404 (purchased from The Chinese Academy of Sciences cell bank) was a cell line with high expression of YAP protein; HCCLM3 (purchased from The Chinese Academy of Sciences cell bank) was a cell line with low expression of YAP protein. The hepatoma cell lines (BEL7404 or HCCLM3) were inoculated into a 96-well plate at the concentration of 2000 cells/well, and incubated overnight in RPMI1640 containing 1% bovine serum at 37° C. The hepatoma cell lines were treated with polypeptides having different concentrations at 37° C. for 72 h.
(§2) Moreover, IC50 values of the cells in 1.1 were determined using CCK-8 kit.
(§3) The polypeptide represented by SEQ ID NO.:1 was further modified. The IC50 values of the polypeptides at a concentration of 1% in cell cultivating for 72 h were measured.

Test [2] relates to hepatoma cell line HCCLM3. Format: cell-based. The protocol: as §1, §2, §3
The mark [3] stands for this setting: Table 8, at a concentration of 1% in cell cultivating for 72 h, unit inferred, read-out: IC50 BEL7404.
Where [4] appears, read: Table 8, at a concentration of 1% in cell cultivating for 72 h, unit inferred, read-out: IC50 HCCLM3.

Molecules are shown by their SMILES. Like-named read-outs stand apart in the source and are kept apart here. Where a SMILES comes first, the peptide text is derived from it. Bridges are numbered along the chain shown (N, C = ends). [ ]: non-standard residue; d: D form. Phe(3-Cl) = N[C@@H](Cc1cccc(Cl)c1)C(=O)O; hCys = N[C@@H](CCS)C(=O)O; Nle = CCCC[C@H](N)C(=O)O

Usually IC50 stands for the concentration at which inhibition is half-maximal. Take `CSCC[C@H](NC(=O)[C@H](CCC(=O)O)NC(=O)[C@H](Cc1c[nH]c2ccccc12)NC(=O)CNC(=O)[C@H](C)NC(=O)[C@@H]1CCCN1C(=O)[C@H](CCCCN)NC(=O)[C@H](CCCCN)NC(=O)[C@H](Cc1c[nH]c2ccccc12)NC(=O)[C@H](CCCCN)NC(=O)[C@H](CCSC)NC(=O)[C@H](CCCNC(=N)N)NC(=O)[C@@H](N)CCCNC(=N)N)C(=O)N[C@@H](C)C(=O)N[C@@H](CCCCN)C(=O)N[C@H](C(=O)N[C@@H](CO)C(=O)N[C@@H](CO)C(=O)NCC(=O)N[C@@H](CCC(N)=O)C(=O)N[C@@H](CCCNC(=N)N)C(=O)N[C@@H](Cc1ccc(O)cc1)C(=O)N[C@@H](Cc1ccccc1)C(=O)O)[C@@H](C)O` [SEQ ID NO.: 20]: the IC50 in test [1] (72 h) was 444 ± 46.5 µM; in test [2] (72 h) it was above 1000 µM.

As to `CCCC[C@@H]1NC(=O)[C@H](CCCCN)NC(=O)[C@H](CCCNC(=N)N)NC(=O)[C@H](CC(C)C)NC(=O)[C@@H](NC(=O)[C@H](Cc2cccc(Cl)c2)NC(=O)[C@@H]2CCCN2C(=O)[C@@H](N)C(C)C)CCSSC[C@@H](C(=O)N[C@@H](CCCCN)C(=O)N2CCC[C@H]2C(=O)N2CCC[C@H]2C(=O)N[C@@H](CCCNC(=N)N)C(=O)N[C@@H](CCCNC(=N)N)C(=O)N[C@@H](CCSC)C(=O)N[C@@H](CCCCN)C(=O)N[C@@H](Cc2c[nH]c3ccccc23)C(=O)N[C@@H](CCCCN)C(=O)N[C@@H](CCCCN)C(=O)O)NC(=O)[C@H](Cc2ccccc2)NC(=O)[C@H](CO)NC(=O)[C@H](C)NC(=O)[C@@H]2CCCN2C1=O` [compound 21] (H-VP[Phe(3-Cl)][hCys]LRK[Nle]PASFCKPPRRMKWKK-OH; disulfide 4-13), the figures for the IC50 in test [1] (setting [3]) and in test [2] (setting [4]) were 28.6 ± 2.9 µM and 196 ± 16.3 µM, respectively.

`CCCC[C@@H]1NC(=O)[C@H](CCCCN)NC(=O)[C@H](CCCNC(=N)N)NC(=O)[C@H](CC(C)C)NC(=O)[C@@H](NC(=O)[C@H](Cc2cccc(Cl)c2)NC(=O)[C@@H]2CCCN2C(=O)[C@@H](N)C(C)C)CCSSC[C@@H](C(=O)N[C@@H](CCCCN)C(=O)N2CCC[C@H]2C(=O)N2CCC[C@H]2C(=O)N[C@@H](CCCNC(=N)N)C(=O)N[C@@H](CCCNC(=N)N)C(=O)N[C@@H](CCSC)C(=O)N[C@@H](CCCCN)C(=O)N[C@@H](Cc2c[nH]c3ccccc23)C(=O)N[C@@H](CCCCN)C(=O)N[C@@H](CCCCN)C(=O)O)NC(=O)[C@H](Cc2ccccc2)NC(=O)[C@H](CO)NC(=O)[C@H](CCC(=O)O)NC(=O)[C@@H]2CCCN2C1=O` [compound 22] (H-VP[Phe(3-Cl)][hCys]LRK[Nle]PESFCKPPRRMKWKK-OH; disulfide 4-13): the IC50 worked out at 67.9 ± 6.4 µM in test [1] (setting [3]) and 181 ± 21.7 µM in test [2] (setting [4]).

With `CCCC[C@@H]1NC(=O)[C@H](CCCCN)NC(=O)[C@H](CCCCN)NC(=O)[C@H](CC(C)C)NC(=O)[C@@H](NC(=O)[C@H](Cc2cccc(Cl)c2)NC(=O)[C@@H]2CCCN2C(=O)[C@@H](N)C(C)C)CCSSC[C@@H](C(=O)N[C@@H](CCCCN)C(=O)N2CCC[C@H]2C(=O)N2CCC[C@H]2C(=O)N[C@@H](CCCNC(=N)N)C(=O)N[C@@H](CCCNC(=N)N)C(=O)N[C@@H](CCSC)C(=O)N[C@@H](CCCCN)C(=O)N[C@@H](Cc2c[nH]c3ccccc23)C(=O)N[C@@H](CCCCN)C(=O)N[C@@H](CCCCN)C(=O)O)NC(=O)[C@H](Cc2ccccc2)NC(=O)[C@H](CO)NC(=O)[C@H](C)NC(=O)[C@@H]2CCCN2C1=O` [compound 23] (H-VP[Phe(3-Cl)][hCys]LKK[Nle]PASFCKPPRRMKWKK-OH; disulfide 4-13), the results for the IC50 in test [1] (setting [3]) and in test [2] (setting [4]) were 37.2 ± 1 µM and 129 ± 26.4 µM, respectively.

For the compound `CCCC[C@@H]1NC(=O)[C@H](CCCNC(=N)N)NC(=O)[C@H](CCCCN)NC(=O)[C@H](CC(C)C)NC(=O)[C@@H](NC(=O)[C@H](Cc2cccc(Cl)c2)NC(=O)[C@@H]2CCCN2C(=O)[C@@H](N)C(C)C)CCSSC[C@@H](C(=O)N[C@@H](CCCCN)C(=O)N2CCC[C@H]2C(=O)N2CCC[C@H]2C(=O)N[C@@H](CCCNC(=N)N)C(=O)N[C@@H](CCCNC(=N)N)C(=O)N[C@@H](CCSC)C(=O)N[C@@H](CCCCN)C(=O)N[C@@H](Cc2c[nH]c3ccccc23)C(=O)N[C@@H](CCCCN)C(=O)N[C@@H](CCCCN)C(=O)O)NC(=O)[C@H](Cc2ccccc2)NC(=O)[C@H](CO)NC(=O)[C@H](C)NC(=O)[C@@H]2CCCN2C1=O` [compound 24] (H-VP[Phe(3-Cl)][hCys]LKR[Nle]PASFCKPPRRMKWKK-OH; disulfide 4-13), the IC50 worked out at 25.7 ± 3 µM in test [1] (setting [3]) and 67.3 ± 38.5 µM in test [2] (setting [4]).

As for `CCCC[C@@H]1NC(=O)[C@H](CCCCN)NC(=O)[C@H](CCCCN)NC(=O)[C@H](CC(C)C)NC(=O)[C@@H](NC(=O)[C@H](Cc2cccc(Cl)c2)NC(=O)[C@@H]2CCCN2C(=O)[C@H](C)N)CCSSC[C@@H](C(=O)N[C@@H](CCCCN)C(=O)N2CCC[C@H]2C(=O)N2CCC[C@H]2C(=O)N[C@@H](CCCNC(=N)N)C(=O)N[C@@H](CCCNC(=N)N)C(=O)N[C@@H](CCSC)C(=O)N[C@@H](CCCCN)C(=O)N[C@@H](Cc2c[nH]c3ccccc23)C(=O)N[C@@H](CCCCN)C(=O)N[C@@H](CCCCN)C(=O)O)NC(=O)[C@H](Cc2ccccc2)NC(=O)[C@H](CO)NC(=O)[C@H](CC(=O)O)NC(=O)[C@@H]2CCCN2C1=O` [compound 25] (H-AP[Phe(3-Cl)][hCys]LKK[Nle]PDSFCKPPRRMKWKK-OH; disulfide 4-13), the IC50 in test [1] (setting [3]) was 119 ± 7.1 µM; in test [2] (setting [4]) it was above 1000 µM.

Consider `CCCC[C@@H]1NC(=O)[C@@H](NC(=O)[C@H](Cc2cccc(Cl)c2)NC(=O)[C@@H]2CCCN2C(=O)[C@H](C)N)CCSSC[C@@H](C(=O)N[C@@H](CCCCN)C(=O)N2CCC[C@H]2C(=O)N2CCC[C@H]2C(=O)N[C@@H](CCCNC(=N)N)C(=O)N[C@@H](CCCNC(=N)N)C(=O)N[C@@H](CCSC)C(=O)N[C@@H](CCCCN)C(=O)N[C@@H](Cc2c[nH]c3ccccc23)C(=O)N[C@@H](CCCCN)C(=O)N[C@@H](CCCCN)C(=O)O)NC(=O)[C@H](Cc2ccccc2)NC(=O)[C@H](CO)NC(=O)[C@H](CC(=O)O)NC(=O)[C@@H]2CCCN2C(=O)[C@H](CCCC)NC(=O)[C@H](CCCCN)NC(=O)[C@H](CCCCN)NC1=O` [compound 26] (H-AP[Phe(3-Cl)][hCys][Nle]KK[Nle]PDSFCKPPRRMKWKK-OH; disulfide 4-13), for which the 50% inhibitory concentration (IC50) in test [1] (setting [3]) is 62.7 ± 5.9 µM; in test [2] (setting [4]), above 1000 µM.

For `CCCC[C@@H]1NC(=O)[C@H](CCCCN)NC(=O)[C@H](CCCCN)NC(=O)[C@H](CC(C)C)NC(=O)[C@@H](NC(=O)[C@H](Cc2cccc(Cl)c2)NC(=O)[C@@H]2CCCN2C(=O)[C@@H](N)C(C)C)CCSSC[C@@H](C(=O)N[C@@H](CCCCN)C(=O)N2CCC[C@H]2C(=O)N2CCC[C@H]2C(=O)N[C@@H](CCCNC(=N)N)C(=O)N[C@@H](CCCNC(=N)N)C(=O)N[C@@H](CCSC)C(=O)N[C@@H](CCCCN)C(=O)N[C@@H](Cc2c[nH]c3ccccc23)C(=O)N[C@@H](CCCCN)C(=O)N[C@@H](CCCCN)C(=O)O)NC(=O)[C@H](Cc2ccccc2)NC(=O)[C@H](CO)NC(=O)[C@H](CC(=O)O)NC(=O)[C@@H]2CCCN2C1=O` [compound 27] (H-VP[Phe(3-Cl)][hCys]LKK[Nle]PDSFCKPPRRMKWKK-OH; disulfide 4-13), the IC50 in test [1] (setting [3]) was 60.2 ± 15.2 µM; in test [2] (setting [4]), below 1000 µM.

Turning to `CCCC[C@@H]1NC(=O)[C@@H](NC(=O)[C@H](Cc2cccc(Cl)c2)NC(=O)[C@@H]2CCCN2C(=O)[C@@H](N)C(C)C)CCSSC[C@@H](C(=O)N[C@@H](CCCCN)C(=O)N2CCC[C@H]2C(=O)N2CCC[C@H]2C(=O)N[C@@H](CCCNC(=N)N)C(=O)N[C@@H](CCCNC(=N)N)C(=O)N[C@@H](CCSC)C(=O)N[C@@H](CCCCN)C(=O)N[C@@H](Cc2c[nH]c3ccccc23)C(=O)N[C@@H](CCCCN)C(=O)N[C@@H](CCCCN)C(=O)O)NC(=O)[C@H](Cc2ccccc2)NC(=O)[C@H](CO)NC(=O)[C@H](CC(=O)O)NC(=O)[C@@H]2CCCN2C(=O)[C@H](CCCC)NC(=O)[C@H](CCCCN)NC(=O)[C@H](CCCCN)NC1=O` [compound 28] (H-VP[Phe(3-Cl)][hCys][Nle]KK[Nle]PDSFCKPPRRMKWKK-OH; disulfide 4-13), the IC50 in test [1] (setting [3]) stood at 55.4 ± 6.3 µM; in test [2] (setting [4]), 198 ± 19.6 µM.

In the case of `CCCC[C@@H]1NC(=O)[C@H](CCCCN)NC(=O)[C@H](CCCCN)NC(=O)[C@H](CC(C)C)NC(=O)[C@@H](NC(=O)[C@H](Cc2cccc(Cl)c2)NC(=O)[C@@H]2CCCN2C(=O)[C@@H](N)C(C)C)CCSSC[C@@H](C(=O)N[C@@H](CCCCN)C(=O)N2CCC[C@H]2C(=O)N2CCC[C@H]2C(=O)N[C@@H](CCCNC(=N)N)C(=O)N[C@@H](CCCNC(=N)N)C(=O)N[C@@H](CCSC)C(=O)N[C@@H](CCCCN)C(=O)N[C@@H](Cc2c[nH]c3ccccc23)C(=O)N[C@@H](CCCCN)C(=O)N[C@@H](CCCCN)C(=O)O)NC(=O)[C@H](Cc2ccccc2)NC(=O)[C@H](CO)NC(=O)[C@H](CCC(=O)O)NC(=O)[C@@H]2CCCN2C1=O` [compound 29] (H-VP[Phe(3-Cl)][hCys]LKK[Nle]PESFCKPPRRMKWKK-OH; disulfide 4-13), the IC50 amounted to 65.6 ± 8.9 µM in test [1] (setting [3]) and 254 ± 12.3 µM in test [2] (setting [4]).

For the compound `CCCC[C@@H]1NC(=O)[C@H](CCCCN)NC(=O)[C@H](CCCCN)NC(=O)[C@H](CC(C)C)NC(=O)[C@@H](NC(=O)[C@H](Cc2cccc(Cl)c2)NC(=O)[C@@H]2CCCN2C(=O)[C@@H](N)C(C)C)CSSCC[C@@H](C(=O)N[C@@H](CCCCN)C(=O)N2CCC[C@H]2C(=O)N2CCC[C@H]2C(=O)N[C@@H](CCCNC(=N)N)C(=O)N[C@@H](CCCNC(=N)N)C(=O)N[C@@H](CCSC)C(=O)N[C@@H](CCCCN)C(=O)N[C@@H](Cc2c[nH]c3ccccc23)C(=O)N[C@@H](CCCCN)C(=O)N[C@@H](CCCCN)C(=O)O)NC(=O)[C@H](Cc2ccccc2)NC(=O)[C@H](CO)NC(=O)[C@H](C)NC(=O)[C@@H]2CCCN2C1=O` [compound 30] (H-VP[Phe(3-Cl)]CLKK[Nle]PASF[hCys]KPPRRMKWKK-OH; disulfide 4-13), the 50% inhibitory concentration (IC50) in test [1] (setting [3]) worked out at 28.2 ± 1.8 µM; in test [2] (setting [4]), 142 ± 9.4 µM.
